Results on 4 compounds are retold here after ChEMBL document CHEMBL6121010, “Novel antileukemic compound with sub-micromolar potency against STAT5 addicted myeloid leukemia cells” (Eur J Med Chem, 2025).

SMILES strings stand for the structures. pEC50: −log10 of the molar value.

The subject of data set [1] is K562. In words: Antileukemic activity against human K562 assessed as cell viability incubated for 48 hrs by MTT assay. It counts as functional, cell-based. Particulars: K562, 48 h. In general terms: Tetrazolium dyes change colour on reduction, which living cells bring about.
The test system of data set [2] is MV4-11. In words: Antileukemic activity against human MV4-11 cell line assessed as inhibition of cell growth incubated for 48 hrs by MTT assay. It counts as functional, cell-based. Particulars: MV4-11, 48 h.
For data set [3], the system named is KCL-22. In words: Antileukemic activity against human KCL-22 assessed as cell viability incubated for 48 hrs by MTT assay. It counts as functional, cell-based. The note with it: KCL-22, 48 h.
Data set [4] in a line: Cytotoxicity against Bone marrow cell (unknown origin) assessed as cell viability incubated for 48 hrs by MTT assay. It counts as toxicity, cell-based. Particulars: bone marrow cells (unknown origin).
In data set [5] the test system is KU812 cell line. Briefly: Antileukemic activity against human KU812 cell line assessed as inhibition of cell growth incubated for 48 hrs by MTT assay. It counts as functional, cell-based. The note with it: KU812, 48 h.
Data set [6] relates to MOLM-13. Briefly: Antileukemic activity against human MOLM-13 assessed as cell viability incubated for 48 hrs by MTT assay. It counts as functional, cell-based. Particulars: MOLM-13, 48 h.
Data set [7] can be described thus: Cytotoxicity against human HS-27A assessed as cell viability incubated for 48 hrs by MTT assay. It counts as toxicity, cell-based. Particulars: HS-27A cells.

By pEC50 is commonly meant the EC50 on a negative log10 scale, so that one unit is a factor of ten. For orientation: EC50 means the concentration at which the effect is half-maximal. For `O=c1[nH]c2ccccc2n1C1CCN(CCCC(c2ccc(F)cc2)c2ccc(F)cc2)CC1` [PIMOZIDE], the pEC50 is 5.46 in data set [1]; 5.49 in data set [2]; 5.03 in data set [3]; 5.54 in data set [5]; 5.23 in data set [6]. The EC50 at 48 h in data set [4] worked out at 18.2 µM; in data set [7], 57.5 µM.

`CC1(C)CCN(CCOc2ccc3[nH]ccc3c2)c2ccc(-c3cnc(N)nc3)cc21`: the negative-log EC50 (pEC50) in data set [1] was 5.54; in data set [2], 6.40; in data set [3], 6.52; in data set [5] it was 5.64; in data set [6] it was 6.52. Besides, the concentration giving a half-maximal response (EC50) at 48 h was found to be 14.5 µM in data set [4] and 43.9 µM in data set [7].

With `CC(C)(C)c1cc(CN(C(=O)CN(Cc2ccc(Cl)cc2)S(=O)(=O)c2c(F)c(F)c(F)c(F)c2F)c2ccc(C(=O)O)cc2)cc(C(C)(C)C)c1`, the pEC50 in data set [1] was 5.00; in data set [2], 5.59; in data set [3], 4.82; in data set [5], 5.37; in data set [6], 5.55. In addition, the concentration giving a half-maximal response (EC50) at 48 h in data set [4] stood at 18.1 µM; in data set [7] it was 27.8 µM.

Turning to `CC1(C)CCN(CCOc2ccc3[nH]ccc3c2)c2ccc(-c3cccnc3)cc21`, the negative-log EC50 (pEC50) in data set [1] was 5.06; in data set [2] it was 5.44; in data set [3], 5.25; in data set [5], 5.27; in data set [6] it was 5.48. Also, the concentration for a half-maximal effect (EC50) at 48 h amounted to 57.6 µM in data set [4] and 63.3 µM in data set [7].
